Source: ChEMBL document CHEMBL3046894, “Synthesis and Herbicidal Activity of Pyrimidinyl Salicylic and Thiosalicylic Acids” (J Pestic Sci, 1996)
Calls of active or inactive are those of the source. The calls are words filed in the database; no cut-off is given here.

Columns and labels:
[1] = system: Gossypium hirsutum; test: Post-emergence phytotoxicity against Gossypium hirsutum (cotton) assessed as mortality per 10 acre; format: organism-based; conditions: in vivo
[2] = system: Glycine max; test: Pre-emergence phytotoxicity against Glycine max (soybean) assessed as mortality at 6.3 g a.i/10 a; format: organism-based; conditions: in vivo, other
[3] = system: Ipomoea lacunosa; test: Pre-emergence herbicidal activity against Ipomoea lacunosa assessed as mortality at 6.3 g a.i/10 a; format: functional; conditions: Ipomoea lacunosa, pre-emergence
[4] = system: Echinochloa crus-galli; test: Pre-emergence herbicidal activity against Echinochloa crus-galli (barnyard grass) assessed as growth inhibition at 25 g a.i/10 a; format: functional, organism-based
[5] = system: Gossypium hirsutum; test: Pre-emergence phytotoxicity against Gossypium hirsutum (cotton) assessed as mortality at 6.3 g a.i/10 a; format: organism-based; conditions: in vivo, other
[6] = system: Ipomoea lacunosa; test: Post-emergence herbicidal activity against Ipomoea lacunosa assessed as mortality per 10 acre; format: functional
[7] = system: Zea mays; test: Pre-emergence phytotoxicity against Zea mays (maize) assessed as mortality at 1.6 g a.i/10 a; format: organism-based; conditions: in vivo, other
[8] = system: Abutilon theophrasti; test: Pre-emergence herbicidal activity against Abutilon theophrasti (velvetleaf) assessed as mortality at 1.6 g a.i/10 a; format: functional; conditions: Abutilon theophrasti, pre-emergence
[9] = system: Glycine max; test: Post-emergence phytotoxicity against Glycine max (soybean) assessed as mortality at 6.3 g a.i/10 a applied 11 days after germination as foliar spray; format: organism-based; conditions: in vivo, other, 264 h
[10] = system: Xanthium strumarium; test: Post-emergence herbicidal activity against Xanthium strumarium (cocklebur) assessed as mortality per 10 acre; format: functional
[11] = system: Abutilon theophrasti; test: Post-emergence herbicidal activity against Abutilon theophrasti (velvetleaf) assessed as mortality at 1.6 g a.i/10 a applied 11 days after germination as foliar spray; format: functional; conditions: 264 h
[12] = system: Ipomoea lacunosa; test: Pre-emergence herbicidal activity against Ipomoea lacunosa assessed as mortality per 10 acre; format: functional
[13] = system: Xanthium strumarium; test: Pre-emergence herbicidal activity against Xanthium strumarium (cocklebur) assessed as mortality at 1.6 g a.i/10 a; format: functional; conditions: Xanthium strumarium, pre-emergence
[14] = system: Persicaria nodosa; test: Pre-emergence herbicidal activity against Persicaria nodosa assessed as growth inhibition at 25 g a.i/10 a; format: functional, organism-based
[15] = system: Persicaria nodosa; test: Post-emergence herbicidal activity against Persicaria nodosa assessed as growth inhibition at 25 g a.i/10 a applied 11 days after germination as foliar spray; format: functional, organism-based
[16] = system: Digitaria sanguinalis; test: Post-emergence herbicidal activity against Digitaria sanguinalis (hairy crabgrass) assessed as growth inhibition at 25 g a.i/10 a applied 11 days after germination as foliar spray; format: functional, organism-based
[17] = system: Xanthium strumarium; test: Post-emergence herbicidal activity against Xanthium strumarium (cocklebur) assessed as mortality at 1.6 g a.i/10 a applied 11 days after germination as foliar spray; format: functional; conditions: 264 h
[18] = system: Persicaria nodosa; test: Pre-emergence herbicidal activity against Persicaria nodosa assessed as mortality per 10 acre; format: functional
[19] = system: Xanthium strumarium; test: Pre-emergence herbicidal activity against Xanthium strumarium (cocklebur) assessed as mortality at 6.3 g a.i/10 a; format: functional; conditions: Xanthium strumarium, pre-emergence
[20] = system: Ipomoea lacunosa; test: Pre-emergence herbicidal activity against Ipomoea lacunosa assessed as mortality at 1.6 g a.i/10 a; format: functional; conditions: Ipomoea lacunosa, pre-emergence
[21] = system: Persicaria nodosa; test: Post-emergence herbicidal activity against Persicaria nodosa assessed as mortality per 10 acre; format: functional
[22] = system: Amaranthus retroflexus; test: Post-emergence herbicidal activity against Amaranthus retroflexus assessed as mortality per 10 acre; format: functional
[23] = system: Ipomoea lacunosa; test: Post-emergence herbicidal activity against Ipomoea lacunosa assessed as mortality at 1.6 g a.i/10 a applied 11 days after germination as foliar spray; format: functional; conditions: 264 h
[24] = system: Glycine max; test: Pre-emergence phytotoxicity against Glycine max (soybean) assessed as mortality at 1.6 g a.i/10 a; format: organism-based; conditions: in vivo, other
[25] = system: Glycine max; test: Post-emergence phytotoxicity against Glycine max (soybean) assessed as mortality at 1.6 g a.i/10 a applied 11 days after germination as foliar spray; format: organism-based; conditions: in vivo, other, 264 h
[26] = system: Echinochloa crus-galli; test: Post-emergence herbicidal activity against Echinochloa crus-galli (barnyard grass) assessed as growth inhibition at 25 g a.i/10 a applied 11 days after germination as foliar spray; format: functional, organism-based
[27] = system: Amaranthus retroflexus; test: Post-emergence herbicidal activity against Amaranthus retroflexus assessed as growth inhibition at 25 g a.i/10 a applied 11 days after germination as foliar spray; format: functional, organism-based
[28] = system: Zea mays; test: Post-emergence phytotoxicity against Zea mays (maize) assessed as mortality at 1.6 g a.i/10 a applied 11 days after germination as foliar spray; format: organism-based; conditions: in vivo, other, 264 h
[29] = system: Gossypium hirsutum; test: Pre-emergence phytotoxicity against Gossypium hirsutum (cotton) assessed as mortality per 10 acre; format: organism-based; conditions: in vivo
[30] = system: Cyperus iria; test: Post-emergence herbicidal activity against Cyperus iria assessed as growth inhibition at 25 g a.i/10 a applied 11 days after germination as foliar spray; format: functional, organism-based
[31] = system: Abutilon theophrasti; test: Pre-emergence herbicidal activity against Abutilon theophrasti (velvetleaf) assessed as mortality at 6.3 g a.i/10 a; format: functional; conditions: Abutilon theophrasti, pre-emergence
[32] = system: Zea mays; test: Pre-emergence phytotoxicity against Zea mays (maize) assessed as mortality at 6.3 g a.i/10 a; format: organism-based; conditions: in vivo, other
[33] = system: Gossypium hirsutum; test: Pre-emergence phytotoxicity against Gossypium hirsutum (cotton) assessed as mortality at 1.6 g a.i/10 a; format: organism-based; conditions: in vivo, other
[34] = system: Amaranthus retroflexus; test: Pre-emergence herbicidal activity against Amaranthus retroflexus assessed as growth inhibition at 25 g a.i/10 a; format: functional, organism-based
[35] = system: Gossypium hirsutum; test: Post-emergence phytotoxicity against Gossypium hirsutum (cotton) assessed as mortality at 6.3 g a.i/10 a applied 11 days after germination as foliar spray; format: organism-based; conditions: in vivo, other, 264 h
[36] = system: Amaranthus retroflexus; test: Pre-emergence herbicidal activity against Amaranthus retroflexus assessed as mortality per 10 acre; format: functional
[37] = system: Cyperus iria; test: Pre-emergence herbicidal activity against Cyperus iria assessed as growth inhibition at 25 g a.i/10 a; format: functional, organism-based
[38] = system: Gossypium hirsutum; test: Post-emergence phytotoxicity against Gossypium hirsutum (cotton) assessed as mortality at 1.6 g a.i/10 a applied 11 days after germination as foliar spray; format: organism-based; conditions: in vivo, other, 264 h
[39] = system: Echinochloa crus-galli; test: Post-emergence herbicidal activity against Echinochloa crus-galli (barnyard grass) assessed as mortality per 10 acre; format: functional
[40] = system: Xanthium strumarium; test: Pre-emergence herbicidal activity against Xanthium strumarium (cocklebur) assessed as mortality per 10 acre; format: functional
[41] = system: Chenopodium album; test: Post-emergence herbicidal activity against Chenopodium album assessed as growth inhibition at 25 g a.i/10 a applied 11 days after germination as foliar spray; format: functional, organism-based
[42] = system: Echinochloa crus-galli; test: Pre-emergence herbicidal activity against Echinochloa crus-galli (barnyard grass) assessed as mortality per 10 acre; format: functional
[43] = system: Chenopodium album; test: Pre-emergence herbicidal activity against Chenopodium album assessed as growth inhibition at 25 g a.i/10 a; format: functional, organism-based
[44] = system: Digitaria sanguinalis; test: Pre-emergence herbicidal activity against Digitaria sanguinalis (hairy crabgrass) assessed as growth inhibition at 25 g a.i/10 a; format: functional, organism-based

In the case of `COc1cc(OC)nc(Oc2ccccc2C(=O)O)n1`, the ED20 [1] was 12 gAi, the Activity [2] was “Non-toxic” and the mortality at 63 g/ha [3] was < 5%. The “growth inhibition (GI)” value [4] was “Active”, the Activity [5] was “Non-toxic” and the ED90 [6] was >100 gAi. For the same molecule, the Activity [7] was “Non-toxic”, the mortality at 16 g/ha [8] was < 5% and the Activity [9] was “Toxic”. For the same molecule, the ED90 [10] was >100 gAi, the mortality at 16 g/ha [11] was < 5% and the ED90 [12] was >100 gAi. The mortality at 16 g/ha [13] was < 5%, the “growth inhibition (GI)” value [14] was “inactive” and the “growth inhibition (GI)” value [15] was “Active”. For the same molecule, the “growth inhibition (GI)” value [16] was “Active”, the mortality at 16 g/ha [17] was < 5% and the ED90 [18] was 12 gAi. The mortality at 63 g/ha [19] was < 5%, the mortality at 16 g/ha [20] was < 5% and the ED90 [21] was 12 gAi. For the same molecule, the ED90 [22] was 12 gAi, the mortality at 16 g/ha [23] was < 5% and the Activity [24] was “Non-toxic”. For the same molecule, the Activity [25] was “Toxic”, the “growth inhibition (GI)” value [26] was “Active” and the “growth inhibition (GI)” value [27] was “Active”. For the same molecule, the Activity [28] was “Toxic”, the ED20 [29] was 12 gAi and the “growth inhibition (GI)” value [30] was “Active”. For the same molecule, the mortality at 63 g/ha [31] was < 5%, the Activity [32] was “Toxic” and the Activity [33] was “Non-toxic”. The “growth inhibition (GI)” value [34] was “Active”, the Activity [35] was “Toxic” and the ED90 [36] was “Active”. The “growth inhibition (GI)” value [37] was “Active”, the Activity [38] was “Toxic” and the ED90 [39] was 50 gAi. The ED90 [40] was >100 gAi, the “growth inhibition (GI)” value [41] was “Active” and the ED90 [42] was 12 gAi. The “growth inhibition (GI)” value [43] was “Active” and the “growth inhibition (GI)” value [44] was “Active”.
